Assay results published in patent US10066270B2, “Methods and kits used in classifying adrenocortical carcinoma” (THE TRANSLATIONAL GENOMICS RESEARCH INSTITUTE, priority 2010, dated 2018).

How the values were obtained:
PTTG1 [1] = experiment: PTTG1 expression in SW-13 ACC cell line, relative to beta-actin; format: cell-based
Description: FIG. 6 depicts the effect of vorinostat on the ACC cell line SW-13.

PTTG1 [2] = experiment: PTTG1 expression in H259R ACC cell line, relative to beta-actin; format: cell-based
Description: FIG. 7 depicts the effect of vorinostat on the ACC cell line H259R.

adrenocortical carcinoma = conditions: ACC patients; cited from earlier work

Structure (SMILES)	effect on PTTG1 expression (PTTG1 [1])	effect on PTTG1 expression (PTTG1 [2])	patients showing a response (adrenocortical carcinoma)	side effects (adrenocortical carcinoma)
O=C(CCCCCCC(=O)Nc1ccccc1)NO [Vorinostat]	reduces PTTG1 expression	reduces PTTG1 expression	–	–
Clc1ccc(C(c2ccccc2Cl)C(Cl)Cl)cc1 (stereo not shown) [mitotane]	–	–	approximately 22%	severe, dose limiting side effects
